Measured values published in patent US8247211B2, “Glycopeptide antibiotics” (American Cyanamid Company, priority 2001, dated 2012).
In brackets after ≈: the same amount, converted by molar mass.

Legend:
Experiment in all cases: In vitro antibacterial evaluation: minimum inhibitory concentration (MIC), broth dilution method
Type in all cases: cell-based
Enterococcus sp. = details: 18 hours at 35° C.
Summary of the method: (§1)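 NCCLS M7-A2 broth dilution with Mueller-Hinton II, testing 64-0.06 μg/mL antibiotic against 5×10^5 CFU/mL inocula. Test strains include recent methicillin-, penicillin- or vancomycin-resistant clinical isolates. MIC is the lowest concentration preventing growth.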

Escherichia coli = details: 18 hours at 35° C.
Summary of the method: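 Values are minimum inhibitory concentrations, meaning the smallest antibiotic concentration that stops growth of the organism. They come from broth dilution in Muller-Hinton II […] per NCCLS guidance (M7-A2), using 5×10^5 CFU/mL and concentrations from 64 to 0.06 μg/mL.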

Staphylococcus sp. = test system: Staphylococcus sp.
Summary of the method: as §1

Streptococcus sp. = details: 18 hours at 35° C.
Summary of the method: as §1

[1] = broth dilution, inoculum 5×10^5 CFU/mL

With `CC(c1ccccc1)C1NC(=O)CNC(=O)C(CO)NC(=O)C(C(O)C2CNC(=N)N2C2OC(CO)C(O)C(O)C2O)NC(=O)C(C(O)C2CNC(=N)N2)NC(=O)C(Cc2ccc(OC3OC(CO)C(OC4OC5COC(c6cccc(Oc7cccc(C(F)(F)F)c7)c6)OC5C(O)C4O)C(O)C3O)cc2)NC1=O` (stereo not shown) [Example 184] the “MIC Enterococcus avium (GC 4558)” value (Enterococcus sp.; Enterococcus avium (GC 4558)) was 32 µg/mL (≈ 20.7 µM), the “MIC Enterococcus faecalis (ATCC 29212)” value (Enterococcus sp.; Enterococcus faecalis (ATCC 29212)) was 32 µg/mL (≈ 20.7 µM) and the “MIC Enterococcus faecalis (GC 2242)” value (Enterococcus sp.; Enterococcus faecalis (GC 2242)) was 32 µg/mL (≈ 20.7 µM). The “MIC Enterococcus faecalis (GC 2691)” value (Enterococcus sp.; Enterococcus faecalis (GC 2691)) was 32 µg/mL (≈ 20.7 µM), the “MIC Enterococcus faecalis (GC 3059)” value (Enterococcus sp.; Enterococcus faecalis (GC 3059)) was 32 µg/mL (≈ 20.7 µM) and the “MIC Enterococcus faecalis (GC 4552)” value (Enterococcus sp.; Enterococcus faecalis (GC 4552)) was 32 µg/mL (≈ 20.7 µM). For the same compound, the “MIC Enterococcus faecalis (GC 4553)” value (Enterococcus sp.; Enterococcus faecalis (GC 4553)) was 16 µg/mL (≈ 10.4 µM), the “MIC Enterococcus faecalis (GC 4554)” value (Enterococcus sp.; Enterococcus faecalis (GC 4554)) was 32 µg/mL (≈ 20.7 µM) and the “MIC Enterococcus faecalis (GC 6189)” value (Enterococcus sp.; Enterococcus faecalis (GC 6189)) was 32 µg/mL (≈ 20.7 µM). The “MIC Enterococcus faecium (GC 2243)” value (Enterococcus sp.; Enterococcus faecium (GC 2243)) was 16 µg/mL (≈ 10.4 µM), the “MIC Enterococcus faecium (GC 4556)” value (Enterococcus sp.; Enterococcus faecium (GC 4556)) was 32 µg/mL (≈ 20.7 µM) and the “MIC Enterococcus faecium (GC 4557)” value (Enterococcus sp.; Enterococcus faecium (GC 4557)) was 32 µg/mL (≈ 20.7 µM). For the same compound, the “MIC Enterococcus avium (GC 4558)” value (Enterococcus sp.; [1]) was 32 µg/mL (≈ 20.7 µM), the “MIC Enterococcus faecalis (ATCC 29212)” value (Enterococcus sp.; [1]) was 32 µg/mL (≈ 20.7 µM) and the “MIC Enterococcus faecalis (GC 2242)” value (Enterococcus sp.; [1]) was 32 µg/mL (≈ 20.7 µM). For the same compound, the “MIC Enterococcus faecalis (GC 2691)” value (Enterococcus sp.; [1]) was 32 µg/mL (≈ 20.7 µM), the “MIC Enterococcus faecalis (GC 3059)” value (Enterococcus sp.; [1]) was 32 µg/mL (≈ 20.7 µM) and the “MIC Enterococcus faecalis (GC 4552)” value (Enterococcus sp.; [1]) was 32 µg/mL (≈ 20.7 µM). For the same compound, the “MIC Enterococcus faecalis (GC 4553)” value (Enterococcus sp.; [1]) was 16 µg/mL (≈ 10.4 µM), the “MIC Enterococcus faecalis (GC 4554)” value (Enterococcus sp.; [1]) was 32 µg/mL (≈ 20.7 µM) and the “MIC Enterococcus faecalis (GC 6189)” value (Enterococcus sp.; [1]) was 32 µg/mL (≈ 20.7 µM). For the same compound, the “MIC Enterococcus faecium (GC 2243)” value (Enterococcus sp.; [1]) was 16 µg/mL (≈ 10.4 µM), the “MIC Enterococcus faecium (GC 4556)” value (Enterococcus sp.; [1]) was 32 µg/mL (≈ 20.7 µM) and the “MIC Enterococcus faecium (GC 4557)” value (Enterococcus sp.; [1]) was 32 µg/mL (≈ 20.7 µM). The “MIC Escherichia coli (ATCC 25922)” value (Escherichia coli; Escherichia coli (ATCC 25922)) was greater than 64 µg/mL, the “MIC Escherichia coli (GC 4559)” value (Escherichia coli; Escherichia coli (GC 4559)) was greater than 64 µg/mL and the “MIC Escherichia coli (GC 4560)” value (Escherichia coli; Escherichia coli (GC 4560)) was 32 µg/mL (≈ 20.7 µM). For the same compound, the “MIC Staphylococcus aureus (ATCC 29213)” value (Staphylococcus sp.; strain ATCC 29213) was 32 µg/mL (≈ 20.7 µM), the “MIC Staphylococcus aureus (GC 1131)” value (Staphylococcus sp.; strain GC 1131) was 32 µg/mL (≈ 20.7 µM) and the “MIC Staphylococcus aureus (GC 3051)” value (Staphylococcus sp.; strain GC 3051) was 32 µg/mL (≈ 20.7 µM). The “MIC Staphylococcus aureus (GC 3053)” value (Staphylococcus sp.; strain GC 3053) was 32 µg/mL (≈ 20.7 µM), the “MIC Staphylococcus aureus (GC 4541)” value (Staphylococcus sp.; strain GC 4541) was 32 µg/mL (≈ 20.7 µM) and the “MIC Staphylococcus aureus (GC 4542)” value (Staphylococcus sp.; strain GC 4542) was 32 µg/mL (≈ 20.7 µM). The “MIC Staphylococcus aureus-SMITH (GC 4543)” value (Staphylococcus sp.; strain GC 4543) was 32 µg/mL (≈ 20.7 µM), the “MIC Staphylococcus aureus (GC 4544)” value (Staphylococcus sp.; strain GC 4544) was 32 µg/mL (≈ 20.7 µM) and the “MIC Staphylococcus aureus (GC 4545)” value (Staphylococcus sp.; strain GC 4545) was 32 µg/mL (≈ 20.7 µM). The “MIC Staphylococcus haemolyticus (GC 4546)” value (Staphylococcus sp.; strain GC 4546) was 32 µg/mL (≈ 20.7 µM), the “MIC Coagulase Negative Staphylococcus (GC 4547)” value (Staphylococcus sp.; strain GC 4547) was 32 µg/mL (≈ 20.7 µM) and the “MIC Coagulase Negative Staphylococcus (GC 4548)” value (Staphylococcus sp.; strain GC 4548) was 16 µg/mL (≈ 10.4 µM). For the same compound, the “MIC Coagulase Negative Staphylococcus (GC 4549)” value (Staphylococcus sp.; strain GC 4549) was 32 µg/mL (≈ 20.7 µM), the “MIC Coagulase Negative Staphylococcus (GC 4551)” value (Staphylococcus sp.; strain GC 4551) was 32 µg/mL (≈ 20.7 µM) and the “MIC Coagulase Negative Staphylococcus (GC 6257)” value (Staphylococcus sp.; strain GC 6257) was 16 µg/mL (≈ 10.4 µM). The “MIC Streptococcus agalactiae (GC 4564)” value (Streptococcus sp.; Streptococcus agalactiae (GC 4564)) was 0.12 µg/mL (≈ 0.0777 µM), the “MIC Streptococcus pneumoniae (ATCC 6301)” value (Streptococcus sp.; Streptococcus pneumoniae (ATCC 6301)) was less than 0.06 µg/mL and the “MIC Streptococcus pneumoniae (GC 1894)” value (Streptococcus sp.; Streptococcus pneumoniae (GC 1894)) was less than 0.06 µg/mL. The “MIC Streptococcus pneumoniae (GC 4565)” value (Streptococcus sp.; Streptococcus pneumoniae (GC 4565)) was less than 0.06 µg/mL, the “MIC Streptococcus pyogenes (GC 4563)” value (Streptococcus sp.; Streptococcus pyogenes (GC 4563)) was 0.25 µg/mL (≈ 0.162 µM) and the “MIC Streptococcus agalactiae (GC 4564)” value (Streptococcus sp.; [1]) was 0.12 µg/mL (≈ 0.0777 µM). For the same compound, the “MIC Streptococcus pneumoniae (ATCC 6301)” value (Streptococcus sp.; [1]) was less than 0.06 µg/mL, the “MIC Streptococcus pneumoniae (GC 1894)” value (Streptococcus sp.; [1]) was less than 0.06 µg/mL and the “MIC Streptococcus pneumoniae (GC 4565)” value (Streptococcus sp.; [1]) was less than 0.06 µg/mL. For the same compound, the “MIC Streptococcus pyogenes (GC 4563)” value (Streptococcus sp.; [1]) was 0.25 µg/mL (≈ 0.162 µM).
